Laboratory results as given in the supplement of paper PMC10307832.

Experiments:
Experiment in all cases: relative viability (nuclei count vs DMSO), 5 days (fraction); higher = more cells survive
Motesanib + Luminespib = compound: CC1(C)CNc2cc(NC(=O)c3cccnc3NCc3ccncc3)ccc21 [Motesanib] + CCNC(=O)c1noc(-c2cc(C(C)C)c(O)cc2O)c1-c1ccc(CN2CCOCC2)cc1 [Luminespib] (partner 0.01 µM)
Method in brief: (§1)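 Relative viability was taken as the ratio of nuclei in treated wells to nuclei in vehicle wells. Lung cancer cell lines in 1536-well plates received compounds by pin tool one day after seeding, either one drug alone or a fixed anchor-drug dose plus five library-drug doses (not always all listed) in √10 steps. Nuclei were counted on 4× images after 5 days of treatment, and values are medians of duplicate plates.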

[1] = compound: C[C@@]1(C(=O)Nc2ccc(F)nc2)CCCN1c1nc(Nc2cc(C3CC3)n[nH]2)c2cccn2n1 + NC(=O)Nc1cc(-c2cccc(F)c2)sc1C(=O)N[C@H]1CCCNC1 [AZD7762] (partner 0.2 µM)
Method in brief: as §1

Motesanib + Olaparib = compound: CC1(C)CNc2cc(NC(=O)c3cccnc3NCc3ccncc3)ccc21 [Motesanib] + O=C(c1cc(Cc2n[nH]c(=O)c3ccccc23)ccc1F)N1CCN(C(=O)C2CC2)CC1 [Olaparib] (partner 8 µM)
Method in brief: as §1

[2] = compound: C[C@@]1(C(=O)Nc2ccc(F)nc2)CCCN1c1nc(Nc2cc(C3CC3)n[nH]2)c2cccn2n1 + CS(=O)(=O)N1CCN(Cc2cc3nc(-c4cccc5[nH]ncc45)nc(N4CCOCC4)c3s2)CC1 [Pictilisib] (partner 1 µM)
Method in brief: as §1

Cell Line | relative viability (Motesanib + Luminespib; first compound 0.01 µM) | relative viability (Motesanib + Luminespib; first compound 0.03162 µM) | relative viability (Motesanib + Luminespib; first compound 0.1 µM) | relative viability (Motesanib + Luminespib; first compound 0.3162 µM) | relative viability (Motesanib + Luminespib; first compound 1 µM) | relative viability ([1]; first compound 0.04 µM) | relative viability ([1]; first compound 0.1265 µM) | relative viability ([1]; first compound 0.4 µM) | relative viability ([1]; first compound 1.265 µM) | relative viability (Motesanib + Olaparib; first compound 0.01 µM) | relative viability (Motesanib + Olaparib; first compound 0.03162 µM) | relative viability (Motesanib + Olaparib; first compound 0.1 µM) | relative viability (Motesanib + Olaparib; first compound 0.3162 µM) | relative viability (Motesanib + Olaparib; first compound 1 µM) | relative viability ([2]; first compound 0.04 µM) | relative viability ([2]; first compound 0.1265 µM) | relative viability ([2]; first compound 0.4 µM) | relative viability ([2]; first compound 1.265 µM)
RERF-LC-KJ | 1.31 | 1.2 | 1.12 | 1.38 | 1.27 | 0.976 | 0.688 | 0.737 | 0.723 | 0.981 | 0.991 | 0.896 | 1.08 | 1.04 | 0.477 | 0.44 | 0.228 | 0.494
LXF-289 | 0.639 | 0.71 | 0.655 | 0.724 | 0.743 | 1.1 | 1.03 | 0.968 | 1.12 | 1.04 | 0.992 | 0.926 | 1.21 | 1.12 | 0.739 | 0.657 | 0.567 | 0.628
PC-14 | 0.117 | 0.142 | 0.126 | 0.218 | 0.154 | 0.391 | 0.394 | 0.308 | 0.348 | 0.224 | 0.32 | 0.322 | 0.258 | 0.204 | 0.505 | 0.0522 | 0.37 | 0.485
NCI-H650 | 0.788 | – | 0.81 | 0.837 | 0.801 | 1.16 | 0.609 | 0.729 | 0.828 | 0.446 | 0.382 | 0.42 | 0.39 | 0.426 | 0.916 | 0.651 | 0.689 | 0.722
NCI-H1666 | 1.05 | 0.978 | 0.991 | 0.999 | 0.977 | 0.838 | 0.667 | 0.642 | 0.552 | 0.743 | 0.761 | 0.776 | 0.851 | 0.705 | 0.364 | 0.378 | 0.447 | 0.38
NCI-H2085 | 0.47 | 0.434 | 0.428 | 0.438 | 0.462 | 1.12 | 0.948 | 0.927 | 0.913 | 0.756 | 0.777 | 0.764 | 0.745 | 0.843 | 0.487 | 0.46 | 0.469 | 0.495
NCI-H1734 | 0.161 | 0.188 | – | 0.199 | 0.201 | 0.54 | 0.459 | 0.377 | 0.446 | 0.54 | 0.686 | 0.72 | 0.636 | 0.565 | 0.381 | 0.301 | 0.321 | 0.296
NCI-H2126 | 0.9 | 0.901 | 0.963 | 0.933 | 0.961 | 0.993 | 0.716 | 0.569 | 0.648 | 0.892 | 0.885 | 0.899 | 0.892 | 1 | 0.456 | 0.392 | 0.394 | 0.436
EMC-BAC-2 | 1.2 | 1.16 | 1.14 | 1.16 | 1.05 | 1.14 | 0.644 | 0.679 | 0.54 | 0.482 | 0.516 | 0.494 | 0.471 | 0.474 | 0.514 | 0.498 | 0.358 | 0.495
